# Test results from US20260202414A1, “PROTEIN COMPLEXES FOR PROXIMITY-BASED LABELING OF INTRACELLULAR MICROENVIRONMENTS” (THE TRUSTEES OF PRINCETON UNIVERSITY, priority 2022, published 2026).
# Tested on: cereblon (CRBN)
# Assay: Proximity labeling study with CRBN-bound iridium complex and diazo-biotin (FIG. 3/4)
# Type: cell-based
# Conditions: transfected cells expressing CRBN with BCNK, tetrazine iridium complex bound to CRBN, diazo-biotin, irradiation; in the presence of CC-885 (without CC-885 only CRBN is enriched)
# Description: Alternatively, the transition metal complex can be bonded to a derivatized amino acid or unnatural amino acid of the protein substrate or E3 ligase. Suitable click chemistry moieties of the transition metal complex and/or unnatural amino acid can be selected from the group consisting of DBCO, BCN, TCO, tetrazine, alkyne and azide. FIG. 3 illustrates validation of such a binding strategy with cereblon (CRBN). Transfected cells were employed to express CRBN with BCNK. Iridium complex comprising a tetrazine moiety was introduced to bind the iridium complex to CRBN. CRBN modulator CC-885 was added to bind to CRBN, and diazo-biotin was added as a protein labeling agent. The iridium complex was irradiated to form a reactive intermediate through energy transfer to the diazo-biotin as described further herein. The reactive intermediate binding to biomolecular species within a predetermined radius of the CRBN-Ir. FIG. 4 illustrates the results of the labeling study. […] In the absence of CC-885, only CRBN is enriched.
smiles,measurement,value
Cc1ccc(NC(=O)NCc2ccc3c(c2)CN(C2CCC(=O)NC2=O)C3=O)cc1Cl (stereo not shown) [CC-885],proteins enriched in the labeling study,CRBN and GSPT1 are enriched
